Assay results: US20140212800A1, “ELECTROPHOTOGRAPHIC PHOTOSENSITIVE MEMBER, PROCESS CARTRIDGE AND ELECTROPHOTOGRAPHIC APPARATUS” (CANON KABUSHIKI KAISHA, priority 2013, published 2014)

Assay: Solubility of the charge transporting substance in 100 g of first / second solvent
Assay type: physicochemical
Conditions: 23° C., 1 atmosphere; for Solubility Y1: in 100 g of toluene (first solvent)
Description: The charge transporting layer satisfying the expressions (4-1) to (4-5) is formed by drying a coat of a charge-transporting-layer coating liquid containing the charge transporting substance, the binder resin, and the following first solvent and second solvent. Additionally, when the solubility of the charge transporting substance in 100 g of the first solvent in an environment at 23° C. under 1 atmosphere is designated as Y1(g), and the solubility of the charge transporting substance in 100 g of the second solvent in an environment at 23° C. under 1 atmosphere is designated as Y2(g), solubility Y1 and solubility Y2 satisfy the following expression (6).
Each of electrophotographic photosensitive members was produced in the same manner as in Example 1 except that the charge transporting substance represented by the formula (CTM-2), polyester resin A having the structural unit represented by the formula (1-18) and o-xylene in Example 1 were changed as shown in Table 1.

Solubility Y1 | Solubility Y2 (in 100 g of acetophenone (second solvent)) | Solubility Y2 (in 100 g of methyl benzoate (second solvent)) | SMILES
25 g |  |  | Cc1ccc(N(C=C(c2ccccc2)c2ccccc2)c2ccc(-c3ccc(N(C=C(c4ccccc4)c4ccccc4)c4ccc(C)cc4C)cc3)cc2)c(C)c1 [CTM-3]
20 g | 8 g | 8 g | C(/C=C/c1cccc(N(c2ccccc2)c2ccc(-c3ccc(N(c4ccccc4)c4cccc(/C=C/C=C/c5ccccc5)c4)cc3)cc2)c1)=C\c1ccccc1 [CTM-2]
